Read-outs that look alike come from different tables or passages of the source.

The source of these data is patent US8686187B2, “Ethoxy diphenyl ethane derivatives, preparation processes and uses thereof” (Shanghai Ecust Biomedicine Co., Ltd., priority 2008, dated 2014).

The test system of data set [1] is Human umbilical vein endothelial cell (HUVEC). Put plainly: Proliferation inhibition of human umbilical vein endothelial cells (SRB). The class given is cell-based.
A further data set concerns Gastric cancer SGC-7901. Put plainly: Antitumor activity evaluation for in vitro cultured tumor cells (SRB). The class given is cell-based.
In another data set the test system is Liver cancer Bel-7402. The data set is described as above. Format: cell-based.
Data set [2] has as its system Human colorectal cancer cell HT-29. The data set is described as above. The class given is cell-based. The note with it: for times stronger than positive control CB1: colorectal cancer HT-29.
Data set [3] has as its system Non-small cell lung cancer cell NCl-H292. The description is as above. Format: cell-based.
The subject of a further data set is Kunming mice. Nature of the data set: Acute toxicity test of single mice intraperitoneal injection. Format: in vivo. To be noted: for LD50: 14 days observation. The method, then: Kunming mice (half-and-half male and female, 17 to 22 grams heavy) are randomly grouped according to weights thereof, and during the test, the mice are divided, based on the proportion of 0.9, into 10 dose groups with each including 10 mice and having the maximal dose of 1500 mg/kg, the tested drugs having the respective doses of 1500, 1350, 1215, 1093, 984, 885, 797, 717, 645 and 581 mg/kg are administered in a manner of single intraperitoneal injection, mice observation and death rate recording are respectively performed once 0.25 h, 0.5 h, 1 h, 2 h, 4 h and 24 h after the drug administration, afterwards, everyday mice observation and death rate recording are performed for 14 days, the mice that are not dead are executed on the fifteenth day and are subjected to pathological anatomy.

For data set [4], the system named is S180 sarcoma transplanted tumor. Put plainly: Tumor-inhibiting rate experiment, intravenous injection, S180 sarcoma transplanted tumor in mice. To be noted: for Tumor-inhibiting rate (%): d0-d12 seven times, tumor weight; for tumor volume observation in drug administered group: around the eighth day after drug administration. The class given is in vivo. The method, then: After 1 week for adaptation, mice are subcutaneously inoculated with S180 sarcoma tissues and randomly grouped after the tumor grows as much as the area of 100 to 300 mm^3; every compound is used for 6 mice in drug administered group and for 12 mice in control group, the administration doses are as below: 25, 50 mg/kg of ECB1P, ECB1GN hydrochloride, ECB1SN hydrochloride and positive controls ECA4P, ECA4GN hydrochloride, as well as 50, 100 mg/kg of positive controls CB1GA hydrochloride, CB1P and CA4P, the administration is given intravenously on Day d0, d2, d4, d6, d8, d10 and d12, seven times in total, measurement of tumor volume, mice weighing and data recording are performed three times every week, the mice are executed on the fourtheenth day after inoculation, tumor tissues are weighed to calculate the tumor-inhibiting rate, tumor weight inhibiting rate %=(1−average tumor weight in treatment group/average tumor weight in control group)×100%.

[5] abbreviates: NCl-H292, 48 hours, SRB, read-out: IC50.
Where [6] appears, read: SGC-7901, 48 hours, SRB, read-out: IC50.
Setting [7] is: Bel-7402, 48 hours, SRB, read-out: IC50.
Where [8] appears, read: HT-29, 48 hours, SRB, read-out: IC50.

As usually defined, the IC50 is the point on the concentration scale where inhibition reaches its midpoint. Take `COc1ccc(/C=C\c2cc(OC)c(OC)c(OC)c2)cc1O` [CA4, (Z)-3,4,5-trimethoxy-3′-hydroxy-4′-methoxydiphenylethylene]: the IC50 was 4.8 nM in data set [1] (48 hours, SRB, read-out: IC50); 4.8 to 7.7 nM in data set [1] (Homo sapiens, 48 h, SRB, read-out: IC50); 3.6 nM with Gastric cancer SGC-7901 (Homo sapiens, SGC-7901, 48 hours, SRB, read-out: IC50); 830 nM in the data set with Liver cancer Bel-7402 (Homo sapiens, Bel-7402, 48 hours, SRB, read-out: IC50); 21 nM in data set [2] (Homo sapiens, HT-29, 48 hours, SRB, read-out: IC50); 2400 nM in data set [3] (setting [5]).
Broadly, the LD50 is the dose at which mortality reaches 50%. On to `CCOc1ccc(/C=C\c2cc(OC)c(OC)c(OC)c2)cc1NC(=O)CN.Cl` [ECA4GN hydrochloride, (Z)-3,4,5-trimethoxy-3′-glycylamino-4′-ethoxydiphenylethane], for which the LD50 in the data set on Kunming mice is listed as 912 mg/kg. Moreover, the “Tumor-inhibiting rate (%)” value is 39% in data set [4] (25 mg/kg intravenously) and 64% in data set [4] (50 mg/kg intravenously, listed as ECA4GN hydrochlonde). For the same compound, the “tumor volume observation in drug administered group” value (from here on “tumor volume observation”) in data set [4] is listed as “tendency of tumor shrinkage”.
As to `COc1ccc(CCc2cc(OC)c(OC)c(OC)c2)cc1O` [CB1, 3,4,5-trimethoxy-3′-hydroxy-4′-methoxydiphenylethane], the IC50 was determined as 5.6 nM in data set [1] (48 hours, SRB, read-out: IC50); 4.2 nM with Gastric cancer SGC-7901 (setting [6]); 1700 nM in the data set on Liver cancer Bel-7402 (setting [7]); 35 nM in data set [2] (setting [8]); 2800 nM in data set [3] (setting [5]).
Take `CCOc1ccc(CCc2cc(OC)c(OC)c(OC)c2)cc1O` [ECB1, 3,4,5-trimethoxy-3′-hydroxy-4′-ethoxydiphenylethane]: the IC50 in data set [1] (48 hours, SRB, read-out: IC50) worked out at 0.75 nM; in the data set with Gastric cancer SGC-7901 (setting [6]), 0.28 nM; with Liver cancer Bel-7402 (setting [7]), 57 nM; in data set [2] (setting [8]), 0.34 nM; in data set [3] (setting [5]) it was 170 nM. In data set [2], the “times stronger than positive control CB1” value was “about 100 times”.
As to “3,4,5-trimethoxy-4′-methoxydiphenylethane3′-o-disodium phosphate salt [CB1P]”, the LD50 in the data set with Kunming mice is given as 1228 mg/kg. Moreover, the “Tumor-inhibiting rate (%)” value in data set [4] (50 mg/kg intravenously) is given as 28%.
`CCOc1ccc(/C=C\c2cc(OC)c(OC)c(OC)c2)cc1OP(=O)([O-])[O-].[Na+].[Na+]` [ECA4P, (Z)-3,4,5-trimethoxy-4′-ethoxydiphenylethylene-3′-o-disodium phosphate salt] displayed an LD50 with Kunming mice of 906 mg/kg. The “Tumor-inhibiting rate (%)” value in data set [4] (25 mg/kg intravenously) is 43%. Further, the “tumor volume observation” value in data set [4] is listed as “tendency of tumor shrinkage”.
Take `CCOc1ccc(/C=C\c2cc(OC)c(OC)c(OC)c2)cc1O` [ECA4, (Z)-3,4,5-trimethoxy-3′-hydroxy-4′-ethoxydiphenylethylene]: the IC50 in data set [1] (Homo sapiens, 48 h) was 0.8 nM; in the data set on Gastric cancer SGC-7901 (Homo sapiens, SGC-7901, 48 h), 0.25 nM; in the data set on Liver cancer Bel-7402 (Homo sapiens, Bel-7402, 48 h), 63 nM; in data set [2] (Homo sapiens, HT-29, 48 h), 0.28 nM; in data set [3] (48 h), 160 nM.
For the compound “3,4,5-trimethoxy-3′-glycylamino-4′-ethoxydiphenylethane [ECB1GN hydrochloride]”, in the data set with Kunming mice, the “toxicity compared with positive controls” value was “toxicity lower than ethoxydiphenylethylene positive control compounds ECA4P and ECA4GN hydrochloride”; the LD50 is 1012 mg/kg. Besides, the “Tumor-inhibiting rate (%)” value in data set [4] (25 mg/kg intravenously) is on record as 40%. The “tumor volume observation” value in data set [4] is “tendency of tumor shrinkage”.
In turn, “(Z)-3,4,5-trimethoxy-4′-methoxydiphenylethylene-3′-o-disodium phosphate salt [CA4P]” had an LD50 in the data set on Kunming mice of 1276 mg/kg. Also, the “Tumor-inhibiting rate (%)” value in data set [4] (50 mg/kg intravenously) worked out at 28%.
“3,4,5-trimethoxy-3′-glycylamino-4′-ethoxydiphenylethane [CB1GN hydrochloride]”: the “Tumor-inhibiting rate (%)” value in data set [4] (50 mg/kg intravenously) was found to be 26%.
`CCOc1ccc(/C=C\c2cc(OC)c(OC)c(OC)c2)cc1N` [ECA4N, (Z)-3,4,5-trimethoxy-3′-amino-4′-ethoxydiphenylethylene]: the IC50 worked out at 0.76 nM in data set [1] (Homo sapiens, 48 h); 0.19 nM with Gastric cancer SGC-7901 (Homo sapiens, SGC-7901, 48 h); 39 nM in the data set on Liver cancer Bel-7402 (Homo sapiens, Bel-7402, 48 h); 0.15 nM in data set [2] (Homo sapiens, HT-29, 48 h); 100 nM in data set [3] (48 h).
On to `CCOc1ccc(CCc2cc(OC)c(OC)c(OC)c2)cc1N` [ECB1N, 3,4,5-trimethoxy-3′-amino-4′-ethoxydiphenylethane], for which the IC50 was 0.68 nM in data set [1] (48 hours, SRB, read-out: IC50); 0.15 nM with Gastric cancer SGC-7901 (setting [6]); 34 nM in the data set with Liver cancer Bel-7402 (setting [7]); 0.18 nM in data set [2] (setting [8]); 120 nM in data set [3] (setting [5]). Besides, the “times stronger than positive control CB1” value in data set [2] is recorded as “about 200 times”.
For “3,4,5-trimethoxy-4′-ethoxydiphenylethane-3′-o-disodium phosphate salt [ECB1P]”, in the data set with Kunming mice, the “toxicity compared with positive controls” value is “toxicity lower than ethoxydiphenylethylene positive control compounds ECA4P and ECA4GN hydrochloride”; the LD50 was 1056 mg/kg. For the same compound, in data set [4] (25 mg/kg intravenously), the “Tumor-inhibiting rate (%)” value is recorded as 42%. In addition, in data set [4], the “tumor volume observation” value is recorded as “tendency of tumor shrinkage”.
`CCOc1ccc(CCc2cc(OC)c(OC)c(OC)c2)cc1NC(=O)C(N)CO.Cl` (centres unmarked) [ECB1SN hydrochloride, 3,4,5-trimethoxy-3′-serylamino-4′-ethoxydiphenylethane]: in the data set on Kunming mice, the “toxicity compared with positive controls” value is “toxicity lower than ethoxydiphenylethylene positive control compounds ECA4P and ECA4GN hydrochloride”; the LD50 came out at 1185 mg/kg. In addition, the “Tumor-inhibiting rate (%)” value in data set [4] (25 mg/kg intravenously) worked out at 45%. For the same compound, the “tumor volume observation” value in data set [4] was “tendency of tumor shrinkage”.
For the compound `COc1ccc(CCc2cc(OC)c(OC)c(OC)c2)cc1N` [CB1N, 3,4,5-trimethoxy-3′-amino-4′-methoxydiphenylethane], the IC50 in data set [1] (48 hours, SRB, read-out: IC50) was found to be 7.7 nM; in the data set with Gastric cancer SGC-7901 (setting [6]), 4.8 nM; with Liver cancer Bel-7402 (setting [7]), 2500 nM; in data set [2] (setting [8]), 39 nM; in data set [3] (setting [5]), 3000 nM.
